Laboratory results: PubChem BioAssay AID248 (DTP/NCI, 2004)
Inconclusive results and toxic doses are left out. No stated cut-off is given here; in the data, active means T/C of 150% or more; inactive means T/C below 125%.

System: L1210 leukemia ip in BDF1 mice, survival T/C
Test: NCI In Vivo Anticancer Drug Screen. Data for tumor model L1210 Leukemia (intraperitoneal) in B6D2F1 (BDF1) mice
Details: endpoint: mean survival time, higher = longer survival
Summary of the method: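 Ratio derived from survival: compound-dosed mice over vehicle-dosed mice, all bearing a transplantable tumor.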

[1] = dose: 100.0 mg/kg/injection, schedule: Q04DX002 (ip), vehicle: Klucel (hydroxypropylcellulose) (HPC)
[2] = dose: 200.0 mg/kg/injection, schedule: Q04DX002 (ip), vehicle: Klucel (hydroxypropylcellulose) (HPC)
[3] = dose: 100.0 mg/kg/injection, schedule: Q01DX009 (ip), vehicle: saline with Tween-80
[4] = dose: 200.0 mg/kg/injection, schedule: Q01DX009 (ip), vehicle: saline with Tween-80
[5] = dose: 400.0 mg/kg/injection, schedule: Q01DX009 (ip), vehicle: saline with Tween-80
[6] = dose: 100.0 mg/kg/injection, schedule: Q01DX001 (ip), vehicle: carboxymethylcellulose (CMC)
[7] = dose: 200.0 mg/kg/injection, schedule: Q01DX001 (ip), vehicle: carboxymethylcellulose (CMC)
[8] = dose: 100.0 mg/kg/injection, schedule: Q01DX001 (ip), vehicle: saline
[9] = dose: 200.0 mg/kg/injection, schedule: Q01DX001 (ip), vehicle: saline
[10] = dose: 400.0 mg/kg/injection, schedule: Q01DX001 (ip), vehicle: saline
[11] = dose: 100.0 mg/kg/injection, schedule: Q01DX009 (ip), vehicle: Klucel (hydroxypropylcellulose) (HPC)
[12] = dose: 200.0 mg/kg/injection, schedule: Q01DX009 (ip), vehicle: Klucel (hydroxypropylcellulose) (HPC)
[13] = dose: 400.0 mg/kg/injection, schedule: Q01DX009 (ip), vehicle: Klucel (hydroxypropylcellulose) (HPC)
[14] = dose: 100.0 mg/kg/injection, schedule: Q04DX003 (ip), vehicle: Klucel (hydroxypropylcellulose) (HPC)
[15] = dose: 200.0 mg/kg/injection, schedule: Q04DX003 (ip), vehicle: Klucel (hydroxypropylcellulose) (HPC)
[16] = dose: 400.0 mg/kg/injection, schedule: Q04DX003 (ip), vehicle: Klucel (hydroxypropylcellulose) (HPC)
[17] = dose: 100.0 mg/kg/injection, schedule: Q04DX003 (ip), vehicle: saline
[18] = dose: 200.0 mg/kg/injection, schedule: Q04DX003 (ip), vehicle: saline
[19] = dose: 400.0 mg/kg/injection, schedule: Q04DX003 (ip), vehicle: saline
[20] = dose: 400.0 mg/kg/injection, schedule: Q01DX001 (ip), vehicle: carboxymethylcellulose (CMC)

Measured: T/C

O=S(=O)(N=S(CCCl)CCCl)c1ccccc1
inactive: [1] 111 % of control | [2] 111 % of control

CCN(C(=O)CC(C)=O)c1ccccc1
inactive: [3] 91 % of control | dose: 100.0 mg/kg/injection, schedule: Q04DX003 (ip), vehicle: saline with Tween-80 98 % of control | [4] 93 % of control | dose: 200.0 mg/kg/injection, schedule: Q04DX003 (ip), vehicle: saline with Tween-80 98 % of control | [5] 94 % of control | dose: 400.0 mg/kg/injection, schedule: Q04DX003 (ip), vehicle: saline with Tween-80 98 % of control

CN(C)c1ccc(/C=N\NC(=S)Nc2ccc3cn[nH]c3c2)cc1
inactive: dose: 50.0 mg/kg/injection, schedule: Q01DX001 (ip), vehicle: carboxymethylcellulose (CMC) 102 % of control | [6] 102 % of control | [7] 111 % of control

CCCC(CCC)(CCC)CCN
inactive: dose: 5.0 mg/kg/injection, schedule: Q01DX Z (ip), vehicle: carboxymethylcellulose (CMC) 91 % of control | dose: 10.0 mg/kg/injection, schedule: Q01DX Z (ip), vehicle: carboxymethylcellulose (CMC) 112 % of control | dose: 15.0 mg/kg/injection, schedule: Q01DX Z (ip), vehicle: carboxymethylcellulose (CMC) 106 % of control | dose: 20.0 mg/kg/injection, schedule: Q01DX Z (ip), vehicle: carboxymethylcellulose (CMC) 101 % of control

O=C1O/C(=C\c2ccccc2)c2ccccc21
inactive: [8] 101 % of control | [3] 94 % of control | [9] 94 % of control | [4] 97 % of control | [10] 99 % of control | [5] 94 % of control

COC(=O)NC1CC(CO)CC1O (centres undefined)
inactive: dose: 50.0 mg/kg/injection, schedule: Q01DX009 (ip), vehicle: Klucel (hydroxypropylcellulose) (HPC) 91 % of control | [11] 89 % of control | [12] 91 % of control

COC(=O)C1OC1c1cc(Cl)ccc1OC (centres undefined)
inactive: [8] 102 % of control | [9] 94 % of control | [10] 94 % of control

O=C(Nc1ccc(Cl)cc1[N+](=O)[O-])Oc1ccc(C(=O)OCc2ccccc2)cc1
inactive: [11] 101 % of control | [12] 103 % of control | [13] 110 % of control

COc1ccc(N2C(=O)C3C(C2=O)C2(Cl)C(Cl)=C(Cl)C3(Cl)C2(Cl)Cl)c(OC)c1 (centres undefined)
inactive: [11] 90 % of control | [14] 101 % of control | [12] 95 % of control | [15] 104 % of control | [13] 93 % of control | [16] 92 % of control

CN(C)S(=O)(=O)Nc1cc(Cl)c(NS(=O)(=O)N(C)C)cc1Cl
inactive: [11] 94 % of control | [14] 91 % of control | [12] 96 % of control | [15] 93 % of control | [13] 102 % of control | [16] 98 % of control

O/N=C/c1c(I)cc(I)c(O)c1I
inactive: [11] 101 % of control | [12] 106 % of control | [13] 90 % of control

O=C1CC(N2C(=O)C3CCCCC3C2=O)C(=O)N1 (centres undefined)
inactive: [17] 97 % of control | [18] 101 % of control | [19] 97 % of control

CCOC(=O)C(C(=O)OCC)N(CC)CC
inactive: [11] 96 % of control | [14] 98 % of control | [15] 93 % of control | [13] 95 % of control | [16] 109 % of control

CCCCOP(=O)(Nc1ccc([N+](=O)[O-])cc1)OCCCC
inactive: dose: 100.0 mg/kg/injection, schedule: Q04DX002 (ip), vehicle: saline with Tween-80 101 % of control | dose: 200.0 mg/kg/injection, schedule: Q04DX002 (ip), vehicle: saline with Tween-80 94 % of control | dose: 400.0 mg/kg/injection, schedule: Q04DX002 (ip), vehicle: saline with Tween-80 90 % of control

CC(=O)OCC1OC(N2C(=O)NC(=O)C3C4OC(=O)OC4C32)C(OC(C)=O)C1OC(C)=O (centres undefined)
inactive: dose: 25.0 mg/kg/injection, schedule: Q01DX005 (ip), vehicle: other 108 % of control | dose: 50.0 mg/kg/injection, schedule: Q01DX005 (ip), vehicle: other 100 % of control | dose: 100.0 mg/kg/injection, schedule: Q01DX005 (ip), vehicle: other 106 % of control | dose: 200.0 mg/kg/injection, schedule: Q01DX005 (ip), vehicle: other 106 % of control | dose: 400.0 mg/kg/injection, schedule: Q01DX005 (ip), vehicle: other 108 % of control

Cc1ccc(S(=O)(=O)C(Cl)(Cl)Cl)cc1
inactive: dose: 100.0 mg/kg/injection, schedule: Q01DX001 (ip), vehicle: Klucel (hydroxypropylcellulose) (HPC) 96 % of control | [11] 97 % of control | dose: 200.0 mg/kg/injection, schedule: Q01DX001 (ip), vehicle: Klucel (hydroxypropylcellulose) (HPC) 96 % of control | [12] 104 % of control | dose: 400.0 mg/kg/injection, schedule: Q01DX001 (ip), vehicle: Klucel (hydroxypropylcellulose) (HPC) 102 % of control | [13] 104 % of control

CC(=O)OC1CCC2(COS(=O)(=O)c3ccc(C)cc3)C(=CCC3C2CCC2(C)C(C(C)CCCC(C)C)CCC32)C1 (centres undefined)
inactive: dose: 100.0 mg/kg/injection, schedule: Q04DX002 (ip), vehicle: steriod suspending solution 101 % of control | dose: 200.0 mg/kg/injection, schedule: Q04DX002 (ip), vehicle: steriod suspending solution 104 % of control | dose: 400.0 mg/kg/injection, schedule: Q04DX002 (ip), vehicle: steriod suspending solution 96 % of control

COc1ccc(OC)c(NC(=O)Nc2cc(OC)ccc2OC)c1
inactive: [3] 106 % of control | [4] 97 % of control | [5] 94 % of control

COCC(N)=O
inactive: dose: 100.0 mg/kg/injection, schedule: Q01DX009 (ip), vehicle: saline 95 % of control | [17] 107 % of control | dose: 200.0 mg/kg/injection, schedule: Q01DX009 (ip), vehicle: saline 97 % of control | [18] 107 % of control | dose: 400.0 mg/kg/injection, schedule: Q01DX009 (ip), vehicle: saline 97 % of control | [19] 101 % of control

O=S(=O)(N/C(=C(/c1ccccc1)N(c1ccccc1)S(=O)(=O)c1ccccc1)c1ccccc1)c1ccccc1
inactive: dose: 75.0 mg/kg/injection, schedule: Q01DX001 (ip), vehicle: Klucel (hydroxypropylcellulose) (HPC) 90 % of control | dose: 150.0 mg/kg/injection, schedule: Q01DX001 (ip), vehicle: Klucel (hydroxypropylcellulose) (HPC) 87 % of control | dose: 300.0 mg/kg/injection, schedule: Q01DX001 (ip), vehicle: Klucel (hydroxypropylcellulose) (HPC) 90 % of control

c1ccc(Sc2cc(Sc3ccccc3)c3cccccc2-3)cc1
inactive: [6] 96 % of control | [7] 100 % of control | [20] 87 % of control

O=C(N=P(c1ccccc1)(c1ccccc1)c1ccccc1)c1ccccc1
inactive: [8] 94 % of control | [9] 100 % of control | [10] 96 % of control

Cc1cccc(N2P(N(C)C)N(c3cccc(C)c3)P2(=O)N(C)C)c1 (centres undefined)
inactive: [1] 97 % of control | [2] 111 % of control | dose: 400.0 mg/kg/injection, schedule: Q04DX002 (ip), vehicle: Klucel (hydroxypropylcellulose) (HPC) 94 % of control

NC(=O)N1C(=O)CC(Sc2ccc(Cl)cc2)C1=O (centres undefined)
inactive: [6] 97 % of control | [7] 100 % of control | [20] 105 % of control
